Experimental data reported in patent US10583121B2, “Patch” (HISAMITSU PHARMACEUTICAL CO., INC., priority 2012, dated 2020).
Counter-ions that a name gives are not always drawn.

Assay: Oral (sublingual) administration of 5 mg asenapine maleate, plasma AUC and adverse effects
Format: in vivo, healthy adult men
Experimental: Furthermore, in a case where the patch obtained in Example 1 was administered, the incidence proportion of adverse effects on the cardiovascular system in the AUC measurement test was 6%. Note that when 5 mg of asenapine maleate was orally administered (sublingual administration) to the healthy adult men (18 people), the average value of the area under plasma concentration-time curve of the free asenapine for a period between 10 minutes and 72 hours after the administration (AUC0.17-72) was 32,074 pg·hr/mL, the average value of the AUC0.17-72 of the N-desmethyl asenapine was 14,299 pg·hr/mL, and the incidence proportion of adverse effects on the cardiovascular system was 39%.

## CN1C[C@@H]2c3ccccc3Oc3ccc(Cl)cc3[C@H]2C1 (relative stereo) [asenapine maleate, trans-5-chloro-2-methyl-2,3,3a,12b-tetrahydro-1H-dibenz[2,3:6,7]oxepino[4,5-c]pyrrole]
10 minutes to 72 hours after administration
  AUC0.17-72 of the free asenapine: 32,074 pg·hr/mL
Healthy adult men (18 people)
  incidence proportion of adverse effects on the cardiovascular system: 39%
